Results: PMC5898002, “Overexpression of a type III PKS gene affording novel violapyrones with enhanced anti-influenza A virus activity” (Microbial Cell Factories, 2018)

Key:
[1] = system: influenza virus A/PR8/34 (H1N1); assay: microbe, parasite or virus in culture; format: cell-based; settings: MDCK cells, MOI = 1.0 (table footnote), 48 h post-infection, mean of n = 4, read-out: IC50: concentration required to inhibit influenza virus A/PR8/34 (H1N1) yield at 48 h post-infection by 50%
in vitro = settings: dog, CC50: concentration required to reduce MDCK cell viability by 50%
MDCK cells = settings: dog, 48 h
[2] = cytotoxicity in MDCK cell by MTT assay; settings: dog, MDCK cells, CC50: concentration required to reduce MDCK cell viability by 50%, mean of n = 3

## Cc1c(O)cc(CCCCC(C)C)oc1=O [Compound 10, Violapyrone B]
[1]
  IC50: > 200 µM
In vitro
  CC50 at 48 h: > 1400 µM
MDCK cells
  CC50: > 1500 µM

## CCCCCCCc1cc(O)c(C)c(=O)o1 [Compound 11, VLP I]
[1]
  IC50: 113 µM
[2]
  CC50 at 48 h: 2200 µM

## CCc1c(O)cc(CCCCC(C)C)oc1=O [Compound 12, VLP P]
[1]
  IC50: 26.9 µM
[2]
  CC50 at 48 h: 1570 µM

## CCC(C)CCCCc1cc(O)c(C)c(=O)o1 (stereo not shown) [Compound 13, VLP C]
[1]
  IC50: 107 µM
[2]
  CC50 at 48 h: 1620 µM

## Cc1c(O)cc(CCCCCC(C)C)oc1=O [Compound 14, VLP H]
[1]
  IC50: 28.8 µM
[2]
  CC50 at 48 h: 1450 µM

## NC(=O)c1ncn([C@@H]2O[C@H](CO)[C@@H](O)[C@H]2O)n1 [Ribavirin, reference compound]
[1]
  IC50: 113 µM
[2]
  CC50 at 48 h: 1520 µM
